Data: PubChem BioAssay (NCI)
Values joined by “and” are separate entries in the source; they are usually repeats but may differ in a detail not shown here. Equal values may be shown once.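 Compound exposure: 48 hours, 5 concentrations, 96-well plates. Abbreviation: GI50, concentration required for 50% inhibition of growth. TGI is the concentration that stops growth completely.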

Assays:
Assay in all cases: DTP human tumour cell line panel, 48 h
A549 NSCLC = test system: A549 NSCLC
DU-145 prostate = test system: DU-145 prostate
HCT-15 colon = test system: HCT-15 colon
IGROV1 ovarian = test system: IGROV1 ovarian
KM12 colon = test system: KM12 colon
MDA-MB-435 = test system: MDA-MB-435
NCI-H522 lung = test system: NCI-H522 lung
OVCAR-8 ovarian = test system: OVCAR-8 ovarian
PC-3 prostate = test system: PC-3 prostate
SK-OV-3 ovarian = test system: SK-OV-3 ovarian

Row | Compound | GI50 (A549 NSCLC) [µM] | TGI (A549 NSCLC) [µM] | GI50 (DU-145 prostate) [µM] | TGI (DU-145 prostate) [µM] | GI50 (HCT-15 colon) [µM] | TGI (HCT-15 colon) [µM] | TGI (IGROV1 ovarian) [µM] | GI50 (KM12 colon) [µM] | TGI (KM12 colon) [µM] | GI50 (MDA-MB-435) [µM] | TGI (MDA-MB-435) [µM] | GI50 (NCI-H522 lung) [µM] | TGI (NCI-H522 lung) [µM] | GI50 (OVCAR-8 ovarian) [µM] | TGI (OVCAR-8 ovarian) | GI50 (PC-3 prostate) [µM] | TGI (PC-3 prostate) [µM] | TGI (SK-OV-3 ovarian) [µM] | GI50 (IGROV1 ovarian) [µM] | GI50 (SK-OV-3 ovarian) [µM]
1 | CC(/C=N/N=C(N)N)=N\N=C(N)N | > 52.4 | 1780 | 31 | 2240 | > 51.4 | 2500 | 1640 | 21.5 | 34.4 | 23 | 452 | 25.1 | 248 | 11.6 | > 76 µM and 378 µM | 40.3 | 1300 | 546 | – | –
2 | C/C(=N/O)c1ccc(Nc2cc(-n3ccnc3)c3ccccc3n2)cc1 | 7.21 | 36.4 | 38.1 | > 100 | 14.3 | 37.3 | 52.8 | 2.64 | 18.5 | 36.4 | > 100 | 35.8 | > 100 | 6.01 | 25.5 µM | 3.69 | > 100 | > 100 | 15.1 | > 100
3 | CCCN1CCC=C(c2ccc(Nc3nc(Nc4ccccc4C(N)=O)c4cc[nH]c4n3)c(C)c2)C1 | 1.89 | > 25 | 3.76 | > 25 | 8.98 | > 25 | > 25 | 9.48 | > 25 | 3.15 | > 25 | 8.66 | > 25 | 10.1 | > 25 µM | > 23.4 | > 25 | > 25 | 8.29 | 9.68
4 | H-QIYKKYRTWYRKAWKVLGKV-NH2 | 12.7 | 47.7 | 3.54 | 11.8 | 2.92 | 17 | 14.1 | 2.97 | 9.37 | 5.75 | 36.9 | 25.8 | > 100 | 3.8 | > 100 µM | 3.82 | 20 | 30.5 | 3.06 | 11.3
5 | COc1cccc2c1cc1c3c(cc4c(c32)OCO4)C(=O)N1 | 5.27 | > 100 | 8.79 | 66.4 | 4.14 | > 100 | 34.4 | 4.09 | 23.7 | 10.9 | > 100 | 2.62 | 8.96 | 2.28 | 6.01 µM | 3.55 | 24.4 | 48.9 | 4.26 | 13.6
6 | CCCCCCCCCCSC(=N)N | 5.59 | 18.6 | 6.63 | 19.3 | 2.01 | 4.73 | 13.3 | 2.45 | 6.5 | 1.77 | 4.01 | 1.56 | 3.47 | 4.17 | 19.2 µM | 4.76 | 17.5 | 19.9 | 2.85 | 7.38
7 | Cc1ccc(S(=O)(=O)NC(CO)C(=O)O)cc1 (stereo not drawn) | – | > 100 | – | > 100 | – | > 100 | > 100 | – | > 100 | – | > 100 | – | > 100 | – | > 100 µM | – | > 100 | > 100 | – | –
